Results on 1 molecule are retold here after patent US20210345656A1, “HIGH NICOTINE ABSORPTION” (Fertin Pharma A/S, priority 2017, published 2021).

For the series the following is noted: nicotine concentration increased from 100 microgram/mL to 14,000 microgram/mL.

For `CN1CCCC1c1cccnc1` (stereo not shown) [nicotine], the “Change of permeability of nicotine across the buccal mucosa” value is recorded as “decrease of about a factor of two”.
